Source: US12493042B2, “Molecules and methods for iterative polypeptide analysis and processing” (priority 2013, dated 2025)
pKd: −log10 of the molar value.

Key:
[1] = biological target: T1, Edmanase (Edman degradation enzyme, modified cruzain) (Trypanosoma cruzi, UniProt P25779, A260C/C147G/G187S/L282Y); assay type: biochemical; details: PITC-derivatized X-AMC substrate, 30 degrees, excitation 370 nm, emission 460 nm
T1 construct: His tag; made in house; host or cells: E. coli BL-21(De3), pet42(a)
Description: (§1) Single amino acid, aminomethylcoumarin (AMC) containing compounds were obtained from BAChem (Bubendorf, Switzerland). These included Arg-AMC, Asn-AMC, Phe-AMC, Met-AMC, Ala-AMC, and Pro-AMC. Phenylisothiocyanate (PITC) was purchased from Thermo-scientific and coupled to the N-terminus of each substrate by incubating for 10 minutes at room temperature in a 100 μL solution of acetonitrile:pyridine:water (10:5:3) with 5 μL of PITC. The derivatized substrate was then dried by rotary evaporation and suspended in 250 μL of 1× Phosphate Buffered Saline (PBS).
(§2) The ability of the Edman degradation enzyme to perform N-terminal cleavage on six substrates of the form Ed-X-AMC, where Ed denotes the Edman reagent, X is an amino acid from the set (Ala, […], Phe, Met, Pro, Arg), and AMC is the fluorogenic […] group was characterized. Cleavage of the X-AMC bond was monitored by the appearance of fluorescence (FIG. 6).
(§3) All kinetic measurements were performed in a 96-well corning plate on a BioTek Synergy2 plate reader at 30 degrees. Reactions were started by adding 5-20 μL of purified enzyme to 100 μL of 10 mM substrate solution. Final enzyme concentration was between 1 nM and 100 nM, depending on the experiment. Fluorescence of the cleaved product was measured by exciting at 370 nm (30 second intervals for 1-10 hours) and monitoring emissions at 460 nm. A standard curve using AMC from Invitrogen was referenced quantitate the amount of product formation.

[2] = biological target: Edmanase (Edman degradation enzyme; Trypanosoma cruzi cruzain variant C25G/G65S/A138C/L160Y, SEQ ID NO: 29) (Trypanosoma cruzi, UniProt P25779, A260C/A295H/A296K/C147G/E217T/G187S/G216A/L282Y/N191D/Q141S/Q281S/S151A); assay type: biochemical; details: Ed-X-AMC (PITC-derivatized) substrate; 30 degrees; 1 nM-100 nM enzyme; excitation 370 nm, emission 460 nm
Excerpt: (§4) A synthetic gene containing the Edman degradation enzyme was purchased from GenScript. The gene encoded a modified version of the cruzian enzyme of T. cruzi having the following substitution mutations: C25G, G65S, A138C, and L160Y.
(§5) The gene was inserted between an NdeI andan XhoI site in a pet42(a) (Novagen) expression vector and transformed into E. coli, BL-21(De3) chemically competent cells. Protein was then over-expressed following Studier's auto-induction protocol. Bacterial cells were harvested by centrifugation of the cell culture at 5000 rpm and 4° C. for 10 minutes. Cells were then suspended in 1×PBS with 10% glycerol and 6M guanidine chloride, pH 7.4. Cells were then lysed by sonication (15 seconds at 20% power, 8 times on ice). The cell lysate was centrifuged at 18000 rpm, 4 degrees for 20 minutes. The supernatant was then filtered through a 0.2 μm cellulose acetate filter. The filtered lysate was loaded onto a 5 mL HisTrap (Ni-NTA) column and washed with 5 column volumes of binding buffer (50 mM Tris-HCl, 150 mM NaCl, 6M guanidine chloride, 25 mM imidazole). Bound protein was then eluted in 50 mM Tris-HCl, 150 mM NaCl, 6M guanidine chloride, 500 mM imidazole. Purified fractions were prepared for SDS-PAGE analysis by mixing 2 parts sample with 1 part 4× loading dye. Samples were analyzed on 16% SDS-PAGE precast gels, and visualized by Coomassie staining. The purified protein was then refolded by successive, overnight dialyses into 1×PBS containing 5M, 3M, 1M, 0.5M, and 0M guanidine chloride. Protein concentration was determined using the calculated molar extinction coefficient and measuring the A280 on an ND-8000 spectrophotometer (Thermo Fisher Scientific).
as §1, with “(PBS). Inhibitor compound, 1-(2-anilino-5-methyl-1,3-thiazol-4-yl)-ethanone, was ordered from Sigma-Aldrich (St. Louis, MO).” for “(PBS).”
as §2, §3

[3] = biological target: N-terminal amino acid of peptides; test: Biolayer interferometry binding assays between peptides and purified NAABs; details: 1×PBS; dissociation rate constant divided by association rate constant, 1:1 model; read-out: Measured Affinity Constants
Description: Real time binding assays between peptides and purified NAABs were performed using biolayer interferometry on a Blitz system (Fortebio, Menlo Park, CA). This system monitors interference of light reflected from the surface of a fiber optic sensor to measure the thickness of molecules bound to the sensor surface. Sensors coated with peptides were allowed to bind to the NAABs in 1×PBS at several different protein concentrations. Binding kinetics were calculated using the Blitz software package, which fit the observed binding curves to a 1:1 binding model to calculate the association rate constants. NAABs were allowed to dissociate by incubation of the sensors in 1×PBS. Dissociation curves were fit to a 1:1 model to calculate the dissociation rate constants. Binding affinities were calculated as the kinetic dissociation rate constant divided by the kinetic association rate constant.
Each square in the binding matrix represents the binding affinity for a single NAAB with an N-terminal amino acid as measured by biolayer interferometry. Each row in the matrix contains all the binding data for a single NAAB, and each column contains the binding data for a single N-terminal amino acid (shown by single-letter code).

[4] = system: Cc1cc(=O)oc2cc(NC(=O)[C@H](CCCNC(=N)N)NC(=S)Nc3ccccc3)ccc12; test: purified protein, by the assay type; assay type: biochemical, Trypanosoma cruzi; details: other: Ed-X-AMC (PITC-derivatized) substrate; 30 degrees; 1 nM-100 nM enzyme; excitation 370 nm, emission 460 nm; pH 7.4; 30.0 °C
Excerpt: as §4, §5
as §1, with “(PBS). Inhibitor compound, 1-(2-anilino-5-methyl-1,3-thiazol-4-yl)-ethanone, was ordered from Sigma-Aldrich (St. Louis, MO).” for “(PBS).”
as §2, §3

[5] = system: Cc1cc(=O)oc2cc(NC(=O)[C@H](Cc3ccccc3)NC(=S)Nc3ccccc3)ccc12; test: purified protein, by the assay type; assay type: biochemical, Trypanosoma cruzi; details: other: Ed-X-AMC (PITC-derivatized) substrate; 30 degrees; 1 nM-100 nM enzyme; excitation 370 nm, emission 460 nm; pH 7.4; 30.0 °C
Excerpt: as §4, §5
as §1, with “(PBS). Inhibitor compound, 1-(2-anilino-5-methyl-1,3-thiazol-4-yl)-ethanone, was ordered from Sigma-Aldrich (St. Louis, MO).” for “(PBS).”
as §2, §3

[6] = biological target: T2, peptides (Thermus thermophilus, UniProt Q5SGX2, A229N/A231G/F152V/F205A/F336A/G338T/H142N/H143G/H212A/H232D/H287G/I228V/K234Y/K289N/L100D/L154K/L165D/L303D/L340G/M230E/W153G/Y257T); test: Binding of Phe NAAB mutant to peptides compared with wild-type protein
T2 construct: a truncated version of wild-type Thermus Thermophilus PheRS (residues 86-350)
T2 sequence (Q5SGX2 other isoform, or with tags, fused parts or gaps with the stated changes): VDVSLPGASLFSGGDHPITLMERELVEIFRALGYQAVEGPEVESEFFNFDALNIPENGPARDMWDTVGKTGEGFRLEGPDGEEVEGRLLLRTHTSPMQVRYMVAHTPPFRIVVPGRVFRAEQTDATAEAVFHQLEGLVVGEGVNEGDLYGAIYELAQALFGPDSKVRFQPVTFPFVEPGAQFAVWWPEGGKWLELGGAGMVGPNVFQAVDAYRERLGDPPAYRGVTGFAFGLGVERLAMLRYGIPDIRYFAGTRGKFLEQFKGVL

C[C@H](N)C(=O)O [Alanine]
Kcat [1]: 0.55 s⁻¹
Km [1]: 21.3 µM

Cc1cc(=O)oc2cc(NC(=O)[C@H](CCCNC(=N)N)NC(=S)Nc3ccccc3)ccc12 [Arginine]
Kcat [2]: 0.087 s⁻¹

Glutamate
pKd [3]: 5.67

CSCC[C@H](NC(=S)Nc1ccccc1)C(=O)Nc1ccc2c(C)cc(=O)oc2c1 [Methionine]
Kcat [2]: 0.54 s⁻¹
Km [2]: 272 µM

Edmanase (Edman degradation enzyme; Trypanosoma cruzi cruzain variant C25G/G65S/A138C/L160Y, SEQ ID NO: 29) (Trypanosoma cruzi; A260C/A295H/A296K/C147G/E217T/G187S/G216A/L282Y/N191D/Q141S/Q281S/S151A)
Km [4]: 167.8 µM
Km [5]: 122.8 µM
kcat [5]: 0.47 s⁻¹
kcat/Km [5]: 3800 M⁻¹ s⁻¹

N[C@@H](Cc1ccccc1)C(=O)O [Phenylalanine]
binding to peptides compared to the wild-type protein [6]: Tighter binding

O=C(O)[C@@H]1CCCN1 [Proline]
Kcat [1]: 0.0014 s⁻¹
Km [1]: 252 µM
